Results published in article PMC3466213, “Discovery of Novel Orally Active Anti-Inflammatory N-Phenylpyrazolyl-N-Glycinyl-Hydrazone Derivatives That Inhibit TNF-α Production” (PLoS ONE, 2012).
“Also recorded” adds a separate entry of the source.

Assays:
TNF-α production = experiment: LPS-induced TNF-α production in culture of mice peritoneal macrophage (ELISA); type: cell-based; details: for IC50: mouse peritoneal macrophages, at least five concentrations, range tested in parentheses, read-out: TNF-α Inhibition IC50; for inhibition at 10 µM: read-out: TNF-α Inhibition, % inhibition at 10 µM, mouse peritoneal macrophages, 10 µM, vs vehicle (DMSO), n = 3
Experimental: BALBc mice were stimulated with thyoglicollate 3% (1 mL/mice; i.p.) and 3 days later the peritoneal cavity were washed with RPMI 1640 and the peritoneal macrophages were plated onto 96-wells plate (30.000 cells/well) for 1 hour at 37°C in an humidified 5% CO2 atmophere. Then, macrophages were incubated with the vehicle or compounds and 1 hour later stimulated with LPS (100 ng/mL) for 24 hour when the supernatants were collected to evaluate TNF-α production by ELISA kit (BD Bioscience).

[1] = system: carrageenan-induced thermal hypernociception; experiment: Carrageenan-induced thermal hypernociception (modified hot-plate test); type: in vivo, rat; details: rats, 100 µmol/kg p.o.
Experimental: (§1) Wistar rats of both sexes (150–200g) were used. The compounds were administered orally (100 µmol.5mL-1.kg-1) as a suspension in 5% arabic gum in saline (vehicle). Control animals received an equal volume of vehicle. One hour later, the animals were injected with either 0.1 ml of 1% carrageenan solution in saline or sterile saline (NaCl 0.9%), into the subplantar surface of one of the hind paws. The thermal hypernociception was determined using the modified hot-plate test. Rats are placed individually on a hot plate with the temperature adjusted to 51°C. The latency of the withdrawal response of the left hind paw is determined at 0, 30, 60, 120, 180, and 240 min post-challenge. The time of maximum permanence permitted on the hot surface is 20 s. Hypernociception to heat is defined as a decrease in withdrawal latency and calculated as follows: Δ paw withdrawal latency (s) = (left paw withdrawal latency at time 0) – (left paw withdrawal latency at the others times).

[2] = Rat liver microsomal stability; type: in vitro ADME; details: 50 µM, 37 °C, 1 mg/mL protein
Experimental: The incubation was conducted at 37°C for 60 min. The experiments contains MgCl2 (1.3 mM), NADP+ (0.4 mM), glucose-6-phosphate (3.5 mM), 0.5 U/mL glucose-6-phosphate dehydrogenase in a phosphate buffer (0.1 M, pH 7.4) containing EDTA (1.5 mM) and the test compounds were added at final concentration of 50 µM with 0.25 mL of final volume. After the pre-warming of the mixture at 37 °C, the microsomal proteins were added to give a final protein concentration of 1 mg/mL. At the end of the incubation time the reaction was stopped by the addition of 375 µL of MeOH and 375 µL of CH3CN. The experiments were performed in duplicate. The samples were centrifuged and filtered for HPLC-UV analysis.
(§2) The organic fraction was analyzed with the Shimadzu Prominence HPLC system (Shimadzu, Tokio, Japan) consisting of a vacuum degasser (DGU-20A5), a binary pump (LC-20AD), a autosampler (SIL-20A), UV/VIS Photodiode Array Detector (SPD-M20A) and fitted with a guard column (CLC G-ODS) and a Shimadzu (CLC-ODS, M) column (250 mm×4.6 mm i.d.) running at room temperature. Isocratic elution was performed with acetonitrile-water (40∶60 v/v), at a flow rate set at 1 mL/min. The mobile phase pH was adjusted to 8.0 with NH4OH solution. The detection was carried out at 285 nm and 330 nm wavelength for compound 4f and 4a, respectively.

p38α MAPK = p38α MAPK (Homo sapiens, UniProt Q16539); experiment: In vitro p38α MAPK activity inhibition (nonradioactive immunosorbent assay, ref 23); type: biochemical
Chain of p38α MAPK (Q16539 whole entry): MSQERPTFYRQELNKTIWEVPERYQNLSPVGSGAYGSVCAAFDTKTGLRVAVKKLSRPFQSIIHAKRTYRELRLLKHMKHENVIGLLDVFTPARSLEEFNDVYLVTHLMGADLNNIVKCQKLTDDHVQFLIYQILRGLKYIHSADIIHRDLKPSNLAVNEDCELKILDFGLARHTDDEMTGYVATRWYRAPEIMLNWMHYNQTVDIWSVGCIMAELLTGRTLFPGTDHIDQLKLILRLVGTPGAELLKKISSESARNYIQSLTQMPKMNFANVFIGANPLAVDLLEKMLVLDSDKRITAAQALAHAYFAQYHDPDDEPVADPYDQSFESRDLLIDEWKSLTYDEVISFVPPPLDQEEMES
Experimental: Because the novel N-acylhydrazone derivatives 4a–g were designed based on the p38α MAPK inhibitor BIRB-796 (3), they were all evaluated for their in vitro capacity to inhibit p38α MAPK activity at a concentration of 10 µM.
*This assay was performed as described in reference 23.

Rat plasma stability = type: in vitro ADME; details: 50 µM; for % Recovered amount after 60 min, rat plasma: 37 °C
Experimental: The rat plasma was obtained from blood by centrifugation and diluted in phosphate buffer (pH 7.4). The test compounds were added at final concentration of 50 µM with 0.25 mL of final volume and incubated at 37°C for 60 min under agitation. At the end of the incubation time the reaction was stopped by the addition of 375 µL of MeOH and 375 µL of CH3CN. The experiments were performed in duplicate. The samples were centrifuged and filtered for HPLC-UV analysis.
as §2

[3] = Cell viability by MTT assay; type: cell-based; details: mouse, murine peritoneal macrophages, vs vehicle (DMSO)
Experimental: The peritoneal macrophage were obtained and plated as described above. The cells were incubated with the vehicle or compounds for 20 hours when was added 20 µl of MTT (3-(4,5-dimethylthiazol-2-yl)-2,5-diphenyltetrazolium bromide) solution (5 mg/mL), followed by 4 hour of incubation. Then, the culture mediums were collected and the precipitates were solubilized in 200 µl of DMSO. The optical density was measured at 490 nm.

[4] = system: TNF-α level in carrageenan-injected paws; experiment: TNF-α level in carrageenan-injected paws (ELISA); type: in vivo; details: rat paw, 4 h after carrageenan, 100 µmol/kg p.o.
Experimental: as §1
The paw was homogenized 4 h after intraplantar injection of carrageenan, and the level of TNF-α in the supernatant was determined by ELISA.

[5] = Aqueous solubility in phosphate buffer (HPLC-UV); type: physicochemical
Experimental: as §2

SMILES	IC50 (TNF-α production) [µM]	inhibition at 10 µM (TNF-α production) [%]	melting point [°C]	Anti-hypernociceptive effect (in words) [1]	% Recovered amount after 60 min, rat liver microsomes [2] [%]	inhibition at 10 µM (p38α MAPK) [%]	% Recovered amount after 60 min, rat plasma (Rat plasma stability) [%]	Resistance to plasma degradation relative to 4f (Rat plasma stability; rat plasma, 60 min)	viability at 20 h, 3 µM [3] [%]	viability at 20 h, 10 µM [3] [%]	Suppression of the elevation of tissue TNF-α level [4] [%]	Improvement in aqueous solubility at pH 6.4 (versus pH 7.4) ([5]; pH 6.4 compared with pH 7.4)	Improvement in solubility of 4a compared with 4f at pH 6.4 ([5]; phosphate buffer pH 6.4, 37 °C, 24 h)	Improvement in solubility of 4a compared with 4f at pH 7.4 ([5]; phosphate buffer pH 7.4, 37 °C, 24 h)
CC(C)(C)c1cc(NCC(=O)N/N=C/c2ccc(OCCN3CCOCC3)c3ccccc23)n(-c2ccccc2)n1 [Compound 4a, (E)-2-(3-tert-butyl-1-phenyl-1H-pyrazol-5-ylamino)-N’-((4-(2-morpholinoethoxy)naphthalen-1-yl)methylene)acetohydrazide]	3.6	96.9	180	comparable to SB-203580; also recorded: completely inhibit the hypernociceptive response	90.1	-5.35	40.7	about four	100	61.5	57.3	ca. three	ca. 12 times	ca. 5 times
CC(C)(C)c1cc(NCC(=O)N/N=C/c2ccc(O)c3ccccc23)n(-c2ccccc2)n1 [Compound 4b, (E)-2-(3-tert-butyl-1-phenyl-1H-pyrazol-5-ylamino)-N’-((4-hydroxynaphthalen-1-yl)methylene)acetohydrazide]	4.3	75.4	270	–	–	~30	–	–	100	100	–	–	–	–
CC(C)(C)c1cc(NCC(=O)N/N=C/c2cccc3ccccc23)n(-c2ccccc2)n1 [Compound 4c, (E)-2-(3-tert-butyl-1-phenyl-1H-pyrazol-5-ylamino)-N’-(naphthalen-1-ylmethylene)acetohydrazide]	5.5	61.2	140	–	–	19.7	–	–	100	90.4	–	–	–	–
CC(C)(C)c1cc(NCC(=O)N/N=C/c2ccc(OCCN3CCOCC3)cc2)n(-c2ccccc2)n1 [Compound 4d, (E)-2-(3-tert-butyl-1-phenyl-1H-pyrazol-5-ylamino)-N’-(4-(2-morpholinoethoxy)benzylidene)acetohydrazide]	–	52.5	158	–	–	16.4	–	–	100	100	–	–	–	–
CC(C)(C)c1cc(NCC(=O)N/N=C/c2ccc(O)cc2)n(-c2ccccc2)n1 [Compound 4e, (E)-2-(3-tert-butyl-1-phenyl-1H-pyrazol-5-ylamino)-N’-(4-hydroxybenzylidene)acetohydrazide]	–	8.1	–	–	–	~30	–	–	100	97.8	–	–	–	–
CC(C)(C)c1cc(NCC(=O)N/N=C/c2ccc(Cl)cc2)n(-c2ccccc2)n1 [Compound 4f, (E)-2-(3-tert-butyl-1-phenyl-1H-pyrazol-5-ylamino)-N’-(4-chlorobenzylidene)acetohydrazide]	1.6	93.2	–	comparable to SB-203580; also recorded: partially inhibit this response	86.7	15.3	13.3	–	100	46.6	55.8	–	–	–
CC(C)(C)c1cc(NCC(=O)N/N=C/c2ccccc2)n(-c2ccccc2)n1 [Compound 4g, (E)-N’-benzylidene-2-(3-tert-butyl-1-phenyl-1H-pyrazol-5-ylamino)acetohydrazide]	–	50.4	–	–	–	19.5	–	–	100	99.8	–	–	–	–
CC(C)=NNC(=O)CNc1cc(C(C)(C)C)nn1-c1ccccc1 [Compound 9, 2-(3-tert-butyl-1-phenyl-1H-pyrazol-5-ylamino)-N’-(propan-2-ylidene)acetohydrazide]	–	–	181 to 183	–	–	–	–	–	–	–	–	–	–	–
CN(CC(=O)N/N=C/c1ccccc1)c1cc(C(C)(C)C)nn1-c1ccccc1 [Compound 15, (E)-N’-benzylidene-2-((3-tert-butyl-1-phenyl-1H-pyrazol-5-yl)(methyl)amino)acetohydrazide]	–	–	156 to 158	–	–	–	–	–	–	–	–	–	–	–
C[S+]([O-])c1ccc(-c2nc(-c3ccncc3)c(-c3ccc(F)cc3)[nH]2)cc1 (centres unmarked) [SB-203580 (1), SB-203580, reference compound]	–	90	–	–	–	–	–	–	100	44.3	–	–	–	–
